Legend:
[1] = refractive index (Na D-line) (dimensionless); xn = mol fraction of the nth substance listed; details: 101 kPa, Liquid
[2] = xn = mol fraction of the nth substance listed; details: 101 kPa, Liquid

CCCCN(CCCC)CCCC [tributylamine] + c1ccccc1
Details | mass density, [2] [kg/m3] | refractive index, [1]
278.15 K, x2 = 0.0702 | 790.1 | 1.4425
278.15 K, x2 = 0.1162 | 791.1 | 1.4495
278.15 K, x2 = 0.1687 | 792.5 | 1.4566
278.15 K, x2 = 0.2383 | 794.9 | 1.4636
278.15 K, x2 = 0.3091 | 797.7 | 1.4707
278.15 K, x2 = 0.4032 | 802.2 | 1.4779
278.15 K, x2 = 0.5043 | 808.5 | 1.485
278.15 K, x2 = 0.6492 | 821.3 | 1.4922
278.15 K, x2 = 0.8251 | 846.8 | 1.4994
283.15 K, x2 = 0.0702 | 786.7 | 1.4414
283.15 K, x2 = 0.1162 | 787.8 | 1.4485
283.15 K, x2 = 0.1687 | 789.3 | 1.4557
283.15 K, x2 = 0.2383 | 791.8 | 1.4628
283.15 K, x2 = 0.3091 | 794.6 | 1.47
283.15 K, x2 = 0.4032 | 799.2 | 1.4771
283.15 K, x2 = 0.5043 | 805.6 | 1.4842
283.15 K, x2 = 0.6492 | 818.5 | 1.4914
283.15 K, x2 = 0.8251 | 844.1 | 1.4985
288.15 K, x2 = 0.0702 | 783.2 | 1.4406
288.15 K, x2 = 0.1162 | 784.4 | 1.448
288.15 K, x2 = 0.1687 | 786 | 1.4551
288.15 K, x2 = 0.2383 | 788.5 | 1.4621
288.15 K, x2 = 0.3091 | 791.3 | 1.4692
288.15 K, x2 = 0.4032 | 795.9 | 1.4763
288.15 K, x2 = 0.5043 | 802.3 | 1.4834
288.15 K, x2 = 0.6492 | 815.2 | 1.4905
288.15 K, x2 = 0.8251 | 840.8 | 1.4976
293.15 K, x2 = 0.0702 | 779.9 | 1.4394
293.15 K, x2 = 0.1162 | 781.1 | 1.4466
293.15 K, x2 = 0.1687 | 782.7 | 1.4538
293.15 K, x2 = 0.2383 | 785.3 | 1.4609
293.15 K, x2 = 0.3091 | 788.1 | 1.4681
293.15 K, x2 = 0.4032 | 792.7 | 1.4752
293.15 K, x2 = 0.5043 | 799 | 1.4824
293.15 K, x2 = 0.6492 | 811.8 | 1.4896
293.15 K, x2 = 0.8251 | 837.1 | 1.4967
298.15 K, x2 = 0 | 774.3 | –
298.15 K, x2 = 0.0702 | 775.6 | 1.4385
298.15 K, x2 = 0.1162 | 776.9 | 1.4456
298.15 K, x2 = 0.1687 | 778.5 | 1.4527
298.15 K, x2 = 0.2383 | 781 | 1.4602
298.15 K, x2 = 0.3091 | 783.8 | 1.4671
298.15 K, x2 = 0.4032 | 788.3 | 1.4742
298.15 K, x2 = 0.5043 | 794.5 | 1.4816
298.15 K, x2 = 0.6492 | 807 | 1.4881
298.15 K, x2 = 0.8251 | 831.6 | 1.4951
303.15 K, x2 = 0 | 770.8 | –
303.15 K, x2 = 0.0702 | 772.5 | 1.4383
303.15 K, x2 = 0.1162 | 773.8 | 1.4454
303.15 K, x2 = 0.1687 | 775.4 | 1.4524
303.15 K, x2 = 0.2383 | 777.9 | 1.46
303.15 K, x2 = 0.3091 | 780.8 | 1.4667
303.15 K, x2 = 0.4032 | 785.4 | 1.474
303.15 K, x2 = 0.5043 | 791.6 | 1.4812
303.15 K, x2 = 0.6492 | 804.3 | 1.4876
303.15 K, x2 = 0.8251 | 829 | 1.4946
308.15 K, x2 = 0 | 767.2 | –
308.15 K, x2 = 0.0702 | 769.1 | 1.4374
308.15 K, x2 = 0.1162 | 770.4 | 1.4443
308.15 K, x2 = 0.1687 | 771.9 | 1.4514
308.15 K, x2 = 0.2383 | 774.4 | 1.4589
308.15 K, x2 = 0.3091 | 777.3 | 1.4658
308.15 K, x2 = 0.4032 | 781.9 | 1.4733
308.15 K, x2 = 0.5043 | 788.1 | 1.4803
308.15 K, x2 = 0.6492 | 800.6 | 1.4868
308.15 K, x2 = 0.8251 | 824.9 | 1.4936
313.15 K, x2 = 0 | 763.6 | –
313.15 K, x2 = 0.0702 | 765.5 | 1.4366
313.15 K, x2 = 0.1162 | 766.8 | 1.4438
313.15 K, x2 = 0.1687 | 768.4 | 1.4508
313.15 K, x2 = 0.2383 | 770.9 | 1.4581
313.15 K, x2 = 0.3091 | 773.8 | 1.465
313.15 K, x2 = 0.4032 | 778.4 | 1.4726
313.15 K, x2 = 0.5043 | 784.5 | 1.4795
313.15 K, x2 = 0.6492 | 797 | 1.486
313.15 K, x2 = 0.8251 | 821.1 | 1.4928
318.15 K, x2 = 0 | 759.8 | –
318.15 K, x2 = 0.0702 | 761.8 | 1.4358
318.15 K, x2 = 0.1162 | 763.1 | 1.4431
318.15 K, x2 = 0.1687 | 764.8 | 1.45
318.15 K, x2 = 0.2383 | 767.2 | 1.4575
318.15 K, x2 = 0.3091 | 770.1 | 1.4643
318.15 K, x2 = 0.4032 | 774.7 | 1.4718
318.15 K, x2 = 0.5043 | 780.8 | 1.4788
318.15 K, x2 = 0.6492 | 793.3 | 1.4853
318.15 K, x2 = 0.8251 | 817.2 | 1.492

CCN(CC)CC [triethylamine] + c1ccccc1
Details | mass density, [2] [kg/m3] | refractive index, [1]
278.15 K, x2 = 0.1145 | 751.3 | 1.4149
278.15 K, x2 = 0.2043 | 759.4 | 1.4197
278.15 K, x2 = 0.3005 | 769.2 | 1.4261
278.15 K, x2 = 0.4005 | 780.6 | 1.4336
278.15 K, x2 = 0.5023 | 793.6 | 1.4421
278.15 K, x2 = 0.6037 | 808.1 | 1.4518
278.15 K, x2 = 0.7035 | 824.2 | 1.4625
278.15 K, x2 = 0.8079 | 843.9 | 1.4756
278.15 K, x2 = 0.9069 | 866.2 | 1.4902
283.15 K, x2 = 0.1145 | 747.4 | 1.4133
283.15 K, x2 = 0.2043 | 755.5 | 1.418
283.15 K, x2 = 0.3005 | 765.4 | 1.4243
283.15 K, x2 = 0.4005 | 776.9 | 1.4318
283.15 K, x2 = 0.5023 | 790 | 1.4404
283.15 K, x2 = 0.6037 | 804.6 | 1.4501
283.15 K, x2 = 0.7035 | 821 | 1.4609
283.15 K, x2 = 0.8079 | 841 | 1.474
283.15 K, x2 = 0.9069 | 863.5 | 1.4886
288.15 K, x2 = 0.1145 | 743.3 | 1.4113
288.15 K, x2 = 0.2043 | 751.5 | 1.416
288.15 K, x2 = 0.3005 | 761.4 | 1.4224
288.15 K, x2 = 0.4005 | 772.9 | 1.43
288.15 K, x2 = 0.5023 | 786 | 1.4387
288.15 K, x2 = 0.6037 | 800.7 | 1.4485
288.15 K, x2 = 0.7035 | 817.2 | 1.4594
288.15 K, x2 = 0.8079 | 837.4 | 1.4727
288.15 K, x2 = 0.9069 | 859.9 | 1.4872
293.15 K, x2 = 0.1145 | 738.4 | 1.409
293.15 K, x2 = 0.2043 | 746.8 | 1.4137
293.15 K, x2 = 0.3005 | 756.7 | 1.4201
293.15 K, x2 = 0.4005 | 768.2 | 1.4278
293.15 K, x2 = 0.5023 | 781.4 | 1.4366
293.15 K, x2 = 0.6037 | 796.1 | 1.4465
293.15 K, x2 = 0.7035 | 812.7 | 1.4576
293.15 K, x2 = 0.8079 | 833.1 | 1.471
293.15 K, x2 = 0.9069 | 855.6 | 1.4856
298.15 K, x2 = 0 | 723.4 | –
298.15 K, x2 = 0.1145 | 733.4 | 1.4062
298.15 K, x2 = 0.2043 | 741.8 | 1.411
298.15 K, x2 = 0.3005 | 751.7 | 1.4173
298.15 K, x2 = 0.4005 | 763.1 | 1.425
298.15 K, x2 = 0.5023 | 776.1 | 1.4338
298.15 K, x2 = 0.6037 | 790.7 | 1.4438
298.15 K, x2 = 0.7035 | 807.2 | 1.4549
298.15 K, x2 = 0.8079 | 827.4 | 1.4683
298.15 K, x2 = 0.9069 | 849.6 | 1.4829
303.15 K, x2 = 0 | 717.9 | –
303.15 K, x2 = 0.1145 | 728.2 | 1.4038
303.15 K, x2 = 0.2043 | 737 | 1.4088
303.15 K, x2 = 0.3005 | 747.1 | 1.4151
303.15 K, x2 = 0.4005 | 758.7 | 1.4228
303.15 K, x2 = 0.5023 | 772 | 1.4317
303.15 K, x2 = 0.6037 | 786.8 | 1.4418
303.15 K, x2 = 0.7035 | 803.6 | 1.4531
303.15 K, x2 = 0.8079 | 824.2 | 1.4666
303.15 K, x2 = 0.9069 | 846.8 | 1.4812
308.15 K, x2 = 0 | 712.9 | –
308.15 K, x2 = 0.1145 | 723.4 | 1.4009
308.15 K, x2 = 0.2043 | 732.3 | 1.4061
308.15 K, x2 = 0.3005 | 742.4 | 1.4125
308.15 K, x2 = 0.4005 | 754 | 1.4203
308.15 K, x2 = 0.5023 | 767.3 | 1.4293
308.15 K, x2 = 0.6037 | 782.1 | 1.4395
308.15 K, x2 = 0.7035 | 799 | 1.451
308.15 K, x2 = 0.8079 | 819.6 | 1.4647
308.15 K, x2 = 0.9069 | 842.1 | 1.4795
313.15 K, x2 = 0 | 708.3 | –
313.15 K, x2 = 0.1145 | 718.9 | 1.3988
313.15 K, x2 = 0.2043 | 727.9 | 1.4043
313.15 K, x2 = 0.3005 | 738.1 | 1.4107
313.15 K, x2 = 0.4005 | 749.7 | 1.4185
313.15 K, x2 = 0.5023 | 762.9 | 1.4275
313.15 K, x2 = 0.6037 | 777.8 | 1.4378
313.15 K, x2 = 0.7035 | 794.7 | 1.4495
313.15 K, x2 = 0.8079 | 815.4 | 1.4632
313.15 K, x2 = 0.9069 | 837.8 | 1.4779
318.15 K, x2 = 0 | 701.6 | –
318.15 K, x2 = 0.1145 | 712.6 | 1.3961
318.15 K, x2 = 0.2043 | 721.7 | 1.4017
318.15 K, x2 = 0.3005 | 732.1 | 1.4082
318.15 K, x2 = 0.4005 | 743.9 | 1.4161
318.15 K, x2 = 0.5023 | 757.2 | 1.4252
318.15 K, x2 = 0.6037 | 772.3 | 1.4356
318.15 K, x2 = 0.7035 | 789.5 | 1.4474
318.15 K, x2 = 0.8079 | 810.5 | 1.4613
318.15 K, x2 = 0.9069 | 833.1 | 1.4759
